From patent US9359293B2, “Methods of treatment using modulators of SIRT2” (priority 2011, dated 2016) come the findings set out here.

The target in one data set is Sirt5 (Homo sapiens (Human), UniProt Q9NXA8). The data set is described as follows: Sirtuin deacylase inhibition, HPLC assay (H3K9Su peptide). The data set is classed as biochemical. The following applies: 1 μM sirtuin, 1 mM NAD, 30 min pre-incubation, 10 minutes. The procedure: (§1) Distinct selectivity profiles were found for each of the inhibitors studied. Different concentrations of TA, TB, TH, or TM were pre-incubated with 1 μM of the sirtuin and 1 mM NAD in 20 mM Tris-HCl buffer (pH 8.0) with 1 mM dithiothreitol (DTT) at 37° C. for 30 minutes. Then 0.05 mM acyl peptides (H3K9Ac for Sirt1, Sirt2 and Sirt3; H3K9Su for Sirt5; H3K9Myr for Sirt6 and Sirt7) were added to initiate the reactions. The total reaction volume iwas […]. Then reactions were incubated at 37° C. for a certain amount of time (2 minutes for Sirt1, 10 minutes for Sirt2 and Sirt5, 30 minutes for Sirt3, and 1 hour for Sirt6 and Sirt7). The reactions were stopped by adding […] of an aqueous solution containing 200 mM HCl and 320 mM acetic acid. After centrifugation to remove precipitated proteins, the supernatant was analyzed by HPLC with a reverse phase C18 column (250×4.6 mm, 90 A, […], GraceVydac, Southborough, Mass.), with a linear gradient of 0% to 20% B for 10 minutes (1 mL/min). […] All reactions were done in duplicate.
Sirt5, sequence (Q9NXA8 37-310): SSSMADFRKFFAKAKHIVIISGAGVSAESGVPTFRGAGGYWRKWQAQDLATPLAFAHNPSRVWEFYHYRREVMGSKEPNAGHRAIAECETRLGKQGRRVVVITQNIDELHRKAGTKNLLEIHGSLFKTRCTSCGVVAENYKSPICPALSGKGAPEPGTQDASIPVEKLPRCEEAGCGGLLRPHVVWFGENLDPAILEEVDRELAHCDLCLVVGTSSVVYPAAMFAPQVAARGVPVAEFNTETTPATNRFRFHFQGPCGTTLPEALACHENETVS

In the next data set the target is Sirt2 (Homo sapiens (Human), UniProt Q8IXJ6). The data set is described as follows: Sirtuin deacylase inhibition, HPLC assay (H3K9Ac peptide). The data set is classed as biochemical. The following applies: for IC50: 1 μM sirtuin, 1 mM NAD, 30 min pre-incubation, H3K9Ac, 10 minutes. The procedure: as §1, with “Then” for “Distinct selectivity profiles were found for each of the inhibitors studied. Different concentrations of TA, TB, TH, or TM were pre-incubated with 1 μM of the sirtuin and 1 mM NAD in 20 mM Tris-HCl buffer (pH 8.0) with 1 mM dithiothreitol (DTT) at 37° C. for 30 minutes. Then”
Sirt2, sequence (Q8IXJ6 whole entry): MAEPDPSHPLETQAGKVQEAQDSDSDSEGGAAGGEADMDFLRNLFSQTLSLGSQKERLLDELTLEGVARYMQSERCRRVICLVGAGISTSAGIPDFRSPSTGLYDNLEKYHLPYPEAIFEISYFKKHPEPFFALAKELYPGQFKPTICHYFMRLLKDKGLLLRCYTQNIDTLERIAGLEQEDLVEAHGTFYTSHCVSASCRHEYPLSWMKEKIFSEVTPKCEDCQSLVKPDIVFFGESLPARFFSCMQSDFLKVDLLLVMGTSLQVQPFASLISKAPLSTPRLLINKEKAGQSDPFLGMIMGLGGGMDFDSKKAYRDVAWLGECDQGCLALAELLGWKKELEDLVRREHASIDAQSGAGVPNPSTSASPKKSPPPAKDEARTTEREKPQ

The next data set addresses Sirt1 (Homo sapiens (Human), UniProt Q96EB6). The description is as above. The data set is classed as biochemical. The following applies: for IC50: 1 μM sirtuin, 1 mM NAD, 30 min pre-incubation, H3K9Ac, 2 minutes; for inhibition of Sirt1 (in words): summary of Table 1. The procedure:
as §1, with “Then” for “Distinct selectivity profiles were found for each of the inhibitors studied. Different concentrations of TA, TB, TH, or TM were pre-incubated with 1 μM of the sirtuin and 1 mM NAD in 20 mM Tris-HCl buffer (pH 8.0) with 1 mM dithiothreitol (DTT) at 37° C. for 30 minutes. Then”

In the next data set the target is Sirt3 (Homo sapiens (Human), UniProt Q9NTG7). The description is as above. The data set is classed as biochemical. The following applies: 1 μM sirtuin, 1 mM NAD, 30 min pre-incubation. On the procedure:
as §1

A further data set addresses Sirt7 (Homo sapiens (Human), UniProt Q9NRC8). The data set is described as follows: Sirtuin deacylase inhibition, HPLC assay (H3K9Myr peptide). The data set is classed as biochemical. As to conditions: 1 μM sirtuin, 1 mM NAD, 30 min pre-incubation, 1 hour. The procedure: as §1
The next data set has as its target Sirt6 (Homo sapiens (Human), UniProt Q8N6T7). Described as above. The data set is classed as biochemical. The following applies: 1 μM sirtuin, 1 mM NAD, 30 min pre-incubation, 1 hour. The procedure:
as §1

The test system of the next data set is MCF10a normal cell line. As to the kind of experiment: Low serum survival assay (normal cell proliferation). The following applies: 25 μM, FIG. 3(B), compared with MCF7. The data set is classed as cell-based, human.
Data set [1] relates to triple negative breast cancer cell line MDA-MB-231. As to the kind of experiment: Soft agar assay (anchorage-independent growth). The data set is classed as cell-based. The following applies: 25 μM, FIGS. 4(A), 4(B). On the procedure:
Next, the ability of these inhibiting compounds to inhibit cancer cell proliferation was tested. MCF-7 and MDA-MB-231 cells (ATCC) were both maintained in RPMI 1640 media (Invitrogen®) supplemented with 10% heat-inactivated fetal bovine serum (FBS). MCF-10A (ATCC) cells were maintained in Dulbecco's Modified Eagle Medium: Nutrient Mixture F-12 (DMEM/F12) (Invitrogen®) supplemented with 10% horse serum (Invitrogen®).
The 0.6% agarose type VII (Sigma), 10% FBS and 1% Penicillin-Streptomycin (Invitrogen®) were prepared in RPMI 1640 medium, and added to a six-well culture plate (2 mL/well). The plates were kept at […] for 20 minutes to allow the agarose to solidify. Plates were then incubated at 37° C. for 5 minutes before the addition of the 1 mL soft agar/cell solution prepared by mixing 0.3% agarose type VII, 10% FBS, 1% Penicillin-Streptomycin and ˜3000 cells in RPMI 1640 medium. Again, the plates were kept at 4° C. for 20 minutes to allow the agarose to solidify. After the plates were incubated at 37° C. for 7 days, 1 mL of RPMI 1640 medium with 0.3% agarose type VII, 10% FBS and 1% Penicillin-Streptomycin was added to the plates and the plates kept at 4° C. for 20 minutes to allow the agarose to solidify. After the plates were incubated at 37° C. for another 7 days, the colony formations were examined under a microscope. All the experiments were duplicated. […]

Structures are written as SMILES. “Also recorded” adds a separate entry of the source. A value given as a limit tells only on which side of the number the result lay.

Sirt7, sequence (Q9NRC8 whole entry): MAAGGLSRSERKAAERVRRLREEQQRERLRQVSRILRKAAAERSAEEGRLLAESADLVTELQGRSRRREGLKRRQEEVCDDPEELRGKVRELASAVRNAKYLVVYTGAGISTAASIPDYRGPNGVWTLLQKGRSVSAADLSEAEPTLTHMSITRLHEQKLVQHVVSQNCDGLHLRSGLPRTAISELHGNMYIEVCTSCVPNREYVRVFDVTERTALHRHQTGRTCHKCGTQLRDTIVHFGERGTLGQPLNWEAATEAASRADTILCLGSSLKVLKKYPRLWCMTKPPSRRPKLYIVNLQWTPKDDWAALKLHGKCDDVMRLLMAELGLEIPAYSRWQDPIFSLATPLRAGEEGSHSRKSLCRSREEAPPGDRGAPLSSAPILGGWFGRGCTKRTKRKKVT
Sirt1, sequence (Q96EB6 whole entry): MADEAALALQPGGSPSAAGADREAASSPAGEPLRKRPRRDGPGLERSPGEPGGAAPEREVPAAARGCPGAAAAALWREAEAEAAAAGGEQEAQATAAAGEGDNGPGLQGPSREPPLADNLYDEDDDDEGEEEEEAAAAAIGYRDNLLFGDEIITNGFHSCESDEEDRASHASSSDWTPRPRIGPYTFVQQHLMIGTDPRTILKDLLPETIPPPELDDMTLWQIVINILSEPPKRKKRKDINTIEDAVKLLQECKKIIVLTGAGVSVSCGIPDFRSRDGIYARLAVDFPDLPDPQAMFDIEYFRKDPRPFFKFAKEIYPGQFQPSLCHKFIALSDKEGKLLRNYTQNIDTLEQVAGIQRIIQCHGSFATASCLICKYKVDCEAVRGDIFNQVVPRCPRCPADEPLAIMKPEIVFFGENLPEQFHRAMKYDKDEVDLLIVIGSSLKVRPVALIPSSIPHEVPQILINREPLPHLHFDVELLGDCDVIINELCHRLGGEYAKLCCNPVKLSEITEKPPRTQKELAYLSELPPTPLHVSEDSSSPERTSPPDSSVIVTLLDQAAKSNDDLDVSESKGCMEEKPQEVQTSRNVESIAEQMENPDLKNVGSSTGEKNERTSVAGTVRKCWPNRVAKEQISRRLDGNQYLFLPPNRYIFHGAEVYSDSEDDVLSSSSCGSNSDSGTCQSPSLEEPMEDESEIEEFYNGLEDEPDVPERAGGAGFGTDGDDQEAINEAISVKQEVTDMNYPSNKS
Sirt6, sequence (Q8N6T7 whole entry): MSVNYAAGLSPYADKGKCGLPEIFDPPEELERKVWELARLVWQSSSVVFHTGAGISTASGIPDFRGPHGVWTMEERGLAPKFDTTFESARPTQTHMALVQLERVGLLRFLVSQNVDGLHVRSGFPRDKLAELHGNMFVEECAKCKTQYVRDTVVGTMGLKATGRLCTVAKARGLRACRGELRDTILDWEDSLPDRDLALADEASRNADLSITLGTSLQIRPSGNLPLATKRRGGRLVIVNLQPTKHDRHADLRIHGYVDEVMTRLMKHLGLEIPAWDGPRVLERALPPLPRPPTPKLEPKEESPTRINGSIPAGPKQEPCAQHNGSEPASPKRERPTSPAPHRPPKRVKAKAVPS
Sirt3, sequence (Q9NTG7 whole entry): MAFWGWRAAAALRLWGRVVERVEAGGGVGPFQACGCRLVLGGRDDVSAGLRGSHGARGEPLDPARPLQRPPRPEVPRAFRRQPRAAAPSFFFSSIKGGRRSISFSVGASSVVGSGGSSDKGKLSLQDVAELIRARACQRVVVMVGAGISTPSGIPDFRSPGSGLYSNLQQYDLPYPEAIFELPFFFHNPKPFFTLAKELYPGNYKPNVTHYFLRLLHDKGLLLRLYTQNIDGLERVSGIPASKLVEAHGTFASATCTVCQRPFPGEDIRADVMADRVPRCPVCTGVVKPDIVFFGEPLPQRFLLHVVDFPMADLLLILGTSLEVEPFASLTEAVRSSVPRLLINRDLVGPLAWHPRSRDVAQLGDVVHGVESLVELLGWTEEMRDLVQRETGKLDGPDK

As a reminder, the IC50 is the concentration that gives 50% inhibition. `CC(=S)NCCCCC(NC(=O)OCc1ccccc1)C(=O)Nc1ccccc1` (stereo not shown) [TA]: the half-inhibitory concentration (IC50) against Sirt5 is greater than 205 µM; against Sirt2, 105 µM; at Sirt1, 30 µM; against Sirt3, greater than 205 µM; at Sirt7, greater than 205 µM; at Sirt6, greater than 205 µM.
For the compound `CCCC(=S)NCCCCC(NC(=O)OCc1ccccc1)C(=O)Nc1ccccc1` (stereo not shown) [TB], the IC50 on Sirt5 is greater than 205 µM; against Sirt2, 3 µM; on Sirt1, 2.4 µM; against Sirt7 it was greater than 205 µM; at Sirt6 it was greater than 205 µM. Moreover, at Sirt1, the “inhibition of Sirt1 (in words)” value was “efficiently inhibit”.
For the compound `CCCCCCC(=S)NCCCCC(NC(=O)OCc1ccccc1)C(=O)Nc1ccccc1` (stereo not shown) [TH], in the data set on MCF10a normal cell line, the “effect on growth of MCF10a normal non-tumorigenic cells” value is on record as “much less than that in the MCF7 cancer cell line; also recorded: can still grow”. Further, the IC50 against Sirt5 was greater than 205 µM; against Sirt2, 0.12 µM; against Sirt1, 0.31 µM; at Sirt7, greater than 205 µM; against Sirt6, greater than 205 µM. In addition, the “inhibition of Sirt2 (in words)” value on Sirt2 (summary of Table 1) is “efficiently inhibit”. In addition, on Sirt1, the “inhibition of Sirt1 (in words)” value was “efficiently inhibit”.
`CCCCCCCCCCCCCC(=S)NCCCCC(NC(=O)OCc1ccccc1)C(=O)Nc1ccccc1` (stereo not shown) [TM]: in data set [1], the “inhibition of anchorage-independent growth of MDA-MB-231” value is given as “can inhibit the anchorage-independent growth”. The “effect on growth of MCF10a normal non-tumorigenic cells” value in the data set on MCF10a normal cell line was “much less than that in the MCF7 cancer cell line; also recorded: can still grow”. Also, the half-inhibitory concentration (IC50) at Sirt5, on Sirt7 and against Sirt6 was greater than 205 µM throughout.
